Laboratory results published in patent US11806346B2, “HTT modulators for treating Huntington's disease” (CHDI Foundation, Inc., priority 2020, dated 2023).

What follows are compounds tested on tHTT (total HTT protein) (assay: Time-resolved FRET assay, total huntingtin (tHTT) detection in cell lysates). Conditions: Example (compounds of the instant disclosure); GEN020 hESCs, 48 hours; read-out: tHTT EC50.
Assay type: cell-based, human
In short: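 TR-FRET readout on cell lysates, with the donor/acceptor ratio reflecting relative total HTT.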

SMILES	EC50
Cc1cn2cc(NC(=O)c3cnc(N4CCNCC4)cn3)cc(F)c2n1 [drawing 1144]	3100 nM

Same assay, conditions: GEN020 hESCs (mutant 48 Q repeat allele), compounds added for 48 hours, TR-FRET on lysate; read-out: tHTT EC50

SMILES	EC50
COCCOC1CN(CC2CN(c3cnc(C(=O)Nc4cc(F)c5nc(C)cn5c4)cn3)C2)C1 [Example 322, N-(8-fluoro-2-methyl-imidazo[1,2-a]pyridin-6-yl)-5-[3-[[3-(2-methoxyethoxy)azetidin-1-yl]methyl]azetidin-1-yl]pyrazine-2-carboxamide]	100 to 500 nM
Cc1cn2cc(NC(=O)c3cnc(N4CC(CNCCC(F)(F)F)C4)cn3)nc(C)c2n1 [Example 198]	100 to 500 nM
Cc1cn2cc(NC(=O)c3cnc(N4CCC(C5CCCN5C)C4)cn3)cc(F)c2n1 (single isomer, unassigned) [Example 238]	100 to 500 nM
Cc1cn2cc(NC(=O)c3cnc(N4CC(CNC5CC5)C4)cn3)cc(C)c2n1 [Example 279, 5-(3-((cyclopropylamino)methyl)azetidin-1-yl)-N-(2,8-dimethylimidazo[1,2-a]pyridin-6-yl)pyrazine-2-carboxamide]	500 to 1000 nM
Cc1cn2cc(NC(=O)c3cnc(N4CC[C@@H](C5(NC6CC6)CC5)C4)cn3)cc(F)c2n1 [Example 170, (R)-5-(3-(1-(cyclopropylamino)cyclopropyl)pyrrolidin-1-yl)-N-(8-fluoro-2-methylimidazo[1,2-a]pyridin-6-yl)pyrazine-2-carboxamide]	100 to 500 nM
Cc1cn2cc(NC(=O)c3cnc(N4CC5CCN(C)C5C4)cn3)cc(F)c2n1 (centres unmarked) [Example 32]	1000 to 10000 nM
Cc1cn2cc(NC(=O)c3cnc(N4CCC(CN(C)C(C)C)C4)cn3)cc(F)c2n1 (single isomer, unassigned) [Example 168]	100 to 500 nM
CN[C@@H]1CCN(c2cnc(C(=O)Nc3cn4cc(C)nc(C)c4n3)cn2)C1 [Example 175, (R)—N-(6,8-dimethylimidazo[1,2-a]pyrazin-2-yl)-5-(3-(methylamino)pyrrolidin-1-yl)pyrazine-2-carboxamide]	100 to 500 nM
Cc1cn2cc(NC(=O)c3cnc(N4CCC(CN(C)C5CC5)C4)cn3)cc(F)c2n1 (single isomer, unassigned) [Example 152]	< 100 nM
Cc1cn2cc(NC(=O)c3cnc(N4CCC(CNC(C)C)C4)cn3)cc(F)c2n1 (single isomer, unassigned) [Example 165]	< 100 nM
CN[C@@H]1CCN(c2cnc(C(=O)Nc3cn4cc(C)nc4c(C)n3)cn2)C1 [Example 67]	100 to 500 nM
Cc1cn2cc(NC(=O)c3cnc(N4CCNC[C@H]4C)cn3)cc(F)c2n1 [Example 5]	1000 to 10000 nM
CNC1CN(c2cnc(C(=O)Nc3cn4cc(C)nc4c(C)n3)cn2)CC1F (single isomer, unassigned) [Example 88]	1000 to 10000 nM
CNC1CC12CN(c1cnc(C(=O)Nc3cn4cc(C)nc4c(OC)n3)cn1)C2 (stereo in doubt) [Example 280, (R)—N-(8-methoxy-2-methylimidazo[1,2-a]pyrazin-6-yl)-5-(1-(methylamino)-5-azaspiro[2.3]hexan-5-yl)pyrazine-2-carboxamide]	100 to 500 nM
CN[C@@H]1CCN(c2cnc(C(=O)Nc3cc4cn(C)nc4cc3F)cn2)C1 [Example 121, (R)—N-(6-fluoro-2-methyl-2H-indazol-5-yl)-5-(3-(methylamino)pyrrolidin-1-yl)pyrazine-2-carboxamide]	100 to 500 nM
Cc1cn2cc(NC(=O)c3cnc(N4CC(C5CCCCN5C5CC5)C4)cn3)cc(F)c2n1 (single isomer, unassigned) [Example 230]	100 to 500 nM
Cc1cn2cc(NC(=O)c3cnc(N4C[C@@H](C)NC[C@H]4C)cn3)cc(F)c2n1 [Example 6]	1000 to 10000 nM
Cc1nc2c(F)cc(NC(=O)c3cnc(N4CC(CNC5CC5)C4)cn3)cc2o1 [Example 261]	100 to 500 nM
CCOc1cc2nn(C)cc2cc1NC(=O)c1cnc(N2CC3(CCCN(C)C3)C2)cn1 [Example 252, N-(6-ethoxy-2-methyl-2H-indazol-5-yl)-5-(6-methyl-2,6-diazaspiro[3.5]nonan-2-yl)pyrazine-2-carboxamide]	< 100 nM
Cc1cn2cc(NC(=O)c3cnc(N4C[C@H](C)NC[C@H]4C)cn3)cc(F)c2n1 [Example 76]	100 to 500 nM
CN[C@H]1CN(c2cnc(C(=O)Nc3cc(F)c4nc(C)cn4c3)cn2)C[C@@H]1C [Example 100]	100 to 500 nM
Cn1cc2cc(NC(=O)c3cnc(N4CC[C@H](CNC5CC5)C4)cn3)cc(F)c2n1 [Example 281, (R)-5-(3-((cyclopropylamino)methyl)pyrrolidin-1-yl)-N-(7-fluoro-2-methyl-2H-indazol-5-yl)pyrazine-2-carboxamide]	100 to 500 nM
Cc1cn2cc(NC(=O)c3ccc(N4CC5CCC(C4)N5C(=O)OC(C)(C)C)nn3)ccc2n1 [Example 144, Tert-butyl 3-(6-((2-methylimidazo[1,2-a]pyridin-6-yl)carbamoyl)pyridazin-3-yl)-3,8-diazabicyclo[3.2.1]octane-8-carboxylate]	10000 to 20000 nM
Cc1cn2cc(NC(=O)c3cnc(N4CC5(CN(C)C5)C4)cn3)cc(F)c2n1 [Example 24]	100 to 500 nM

SMILES	EC50
Cc1cn2cc(NC(=O)c3cnc(N4CC5CNCC5C4=O)cn3)cc(F)c2n1 (single isomer, unassigned) [Example 294]	< 100 nM
COc1nc(NC(=O)c2cnc(N3CC4NCCC43)cn2)cn2cc(C)nc12 (centres unmarked) [Example 361, 5-(2,6-Diazabicyclo[3.2.0]heptan-6-yl)-N-(8-methoxy-2-methyl-imidazo[1,2-a]pyrazin-6-yl)pyrazine-2-carboxamide]	100 to 500 nM
Cc1cn2cc(NC(=O)c3cnc(N4CC(C5CCCCN5C)C4)cn3)nc(C)c2n1 (single isomer, unassigned) [Example 227]	100 to 500 nM
Cn1cc2cc(NC(=O)c3cnc(N4CC(CCNC5CC5)C4)cn3)cc(F)c2n1 [Example 321, 5-(3-(2-(cyclopropylamino)ethyl)azetidin-1-yl)-N-(7-fluoro-2-methyl-2H-indazol-5-yl)pyrazine-2-carboxamide]	500 to 1000 nM
CCCCNC1CCN(c2cnc(C(=O)Nc3cc(F)c4nc(C)cn4c3)cn2)C1 (centres unmarked) [Example 36]	100 to 500 nM
CN[C@@H]1CCN(c2cnc(C(=O)Nc3ccc4nc(C)oc4c3)cn2)C1 [Example 363, (R)-5-(3-(Methylamino)pyrrolidin-1-yl)-N-(2-methylbenzo[d]oxazol-6-yl)pyrazine-2-carboxamide]	1000 to 10000 nM
O=C(Nc1cc(F)c2nc(C(F)F)cn2c1)c1cnc(N2CC[C@@H](NC3CC3)C2)cn1 [Example 367, (R)-5-(3-(cyclopropylamino)pyrrolidin-1-yl)-N-(2-(difluoromethyl)-8-fluoroimidazo[1,2-a]pyridin-6-yl)pyrazine-2-carboxamide]	1000 to 10000 nM
CN[C@@H]1CCN(c2cnc(C(=O)Nc3cc4cc(C)nn4cc3C)cn2)C1 [Example 178]	500 to 1000 nM
Cc1cn2cc(NC(=O)c3cnc(N4CCC(NC(C)C)C4)cn3)cc(F)c2n1 (centres unmarked) [Example 28]	100 to 500 nM
COc1cc(NC(=O)c2cnc(N3CC(CNC4CC4)C3)cn2)cn2cc(C)nc12 [Example 314]	< 100 nM
Cc1cn2cc(NC(=O)c3cnc(N4CC(C5CCCCN5C)C4)cn3)cc(F)c2n1 (single isomer, unassigned) [Example 233]	100 to 500 nM
CNCC1(F)CCN(c2cnc(C(=O)Nc3cc(F)c4nc(C)cn4c3)cn2)C1 (centres unmarked) [Example 251, N-(8-fluoro-2-methylimidazo[1,2-a]pyridin-6-yl)-5-(3-fluoro-3-((methylamino)methyl)pyrrolidin-1-yl)pyrazine-2-carboxamide]	100 to 500 nM
Cc1cn2cc(NC(=O)c3cnc(N4CC5CN(C6CC6)CC5C4=O)cn3)cc(F)c2n1 (centres unmarked) [Example 291]	100 to 500 nM
CN[C@@H]1CCN(c2cnc(C(=O)Nc3cc4cn(C)nc4cc3OC(F)F)cn2)C1 [Example 180]	< 100 nM
COc1cc2nn(C)cc2cc1NC(=O)c1cnc(N2CC(CNC3CC3)C2)cn1 [Example 288, 5-(3-((cyclopropylamino)methyl)azetidin-1-yl)-N-(6-methoxy-2-methyl-2H-indazol-5-yl)pyrazine-2-carboxamide]	100 to 500 nM
CN[C@H]1CCN(c2ncc(C(=O)Nc3cc(F)c4nc(C)cn4c3)cn2)C1 [Example 129, (S)—N-(8-fluoro-2-methylimidazo[1,2-a]pyridin-6-yl)-2-(3-(methylamino)pyrrolidin-1-yl)pyrimidine-5-carboxamide]	500 to 1000 nM
CC[C@@H]1CN(c2cnc(C(=O)Nc3cn4cc(C)nc4c(C)n3)cn2)CCN1 [Example 68]	1000 to 10000 nM
Cc1cn2cc(NC(=O)c3cnc(N4CCC(C5CCCN5)C4)cn3)cc(F)c2n1 (single isomer, unassigned) [Example 161]	100 to 500 nM
COC1CCN(CC2CN(c3cnc(C(=O)Nc4cc(F)c5nc(C)cn5c4)cn3)C2)C1 (centres unmarked) [Example 200]	100 to 500 nM
Cc1cn2cc(NC(=O)c3cnc(N4CC(C5CCCN(C6CC6)C5)C4)cn3)cc(F)c2n1 (centres unmarked) [Example 244, 5-(3-(1-cyclopropylpiperidin-3-yl)azetidin-1-yl)-N-(8-fluoro-2-methylimidazo[1,2-a]pyridin-6-yl)pyrazine-2-carboxamide]	500 to 1000 nM
Cc1cn2cc(NC(=O)c3cnc(N(C)C4CC(C)(C)NC(C)(C)C4)cn3)nc(C)c2n1 [Example 217]	100 to 500 nM
Cc1cn2cc(NC(=O)c3cnc(N(C)[C@H]4CCNC4)cn3)cc(F)c2n1 [Example 7]	1000 to 10000 nM
CN[C@@H]1CCN(c2ncc(C(=O)Nc3cn4cc(C)nc4c(C)n3)nn2)C1 [Example 375, (R)—N-(2,8-Dimethylimidazo[1,2-a]pyrazin-6-yl)-3-(3-(methylamino)-pyrrolidin-1-yl)-1,2,4-triazine-6-carboxamide]	1000 to 10000 nM
Cc1cn2cc(NC(=O)c3cnc(N4CCC(NC5CC5)C4)cn3)nc(C)c2n1 (centres unmarked) [Example 60]	100 to 500 nM

Same assay, conditions: read-out: tHTT EC50; GEN020 hESCs (mutant 48 Q repeat allele), compounds added for 48 hours, TR-FRET on lysate

SMILES	EC50
Cc1cn2cc(NC(=O)c3cnc(N4CC[C@@H](NC5CC5)C4)cn3)cc(C)c2n1 [Example 181, (R)-5-(3-(cyclopropylamino)pyrrolidin-1-yl)-N-(2,8-dimethylimidazo[1,2-a]pyridin-6-yl)pyrazine-2-carboxamide]	100 to 500 nM
